# Results from patent US6753150B2, “Method for determining whether a compound is capable of inhibiting the interaction of a peptide with rage” (The Trustees of Columbia University in the City of New York, priority 1998, dated 2004).
# Experiments:
# [1] = target: T1, sRAGE (Homo sapiens, UniProt Q15109); assay: Radioligand binding of 125I-sRAGE to immobilized AGE-modified proteins (dose response); conditions: for specific binding to sRAGE/RAGE: immobilized AGE-protein, 125I-sRAGE
# T1 construct: full length soluble RAGE (100 nM; specific activity 7,000-8,000 cpm/ng)
# T1 sequence (Q15109 23-342 limits assumed): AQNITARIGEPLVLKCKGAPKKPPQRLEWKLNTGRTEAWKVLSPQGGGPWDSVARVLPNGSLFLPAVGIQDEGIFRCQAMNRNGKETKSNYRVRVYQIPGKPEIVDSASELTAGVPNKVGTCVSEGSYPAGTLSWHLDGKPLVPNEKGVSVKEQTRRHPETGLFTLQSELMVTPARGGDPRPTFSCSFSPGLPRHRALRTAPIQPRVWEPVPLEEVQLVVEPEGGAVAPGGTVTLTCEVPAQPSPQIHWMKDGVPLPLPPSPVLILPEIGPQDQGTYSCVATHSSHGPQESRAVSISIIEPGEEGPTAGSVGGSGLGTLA
# Method: Radioligand binding studies: dose response experiments. CML- or pentosidine BSA (5 μg) was immobilized to plastic wells and radioligand binding assays performed with increasing concentrations of purified ^125-I sRAGE +/− excess unlabelled sRAGE (50-fold molar excess). Bound tracer was eluted with buffer containing NP40 (1%) and NaCl (0.15M) and the data subjected to analysis as described in the Experimental Details section.
# Radioligand binding assays. […] All materials were devoid of endotoxin using the Detoxi-gel system (PIERCE®) and tested for negativity in the limulus amebocyte assay (SIGMA®). […] Specific AGE or control protein (5 μg) was loaded onto the wells of a NUNC MAXISORP® dish in sodium bicarbonate/sodium carbonate buffer (pH 9.8) overnight at 4° C. The following morning, wells were aspirated and blocked with phosphate buffered saline (with calcium/magnesium) containing bovine serum albumin (1%) for two hrs at 37° C. Wells were then washed once with phosphate buffered saline (without calcium/magnesium) containing Tween 20 (0.05%); 0.150 ml/well. A radioligand binding assay was then performed in phosphate buffered saline containing 0.2% bovine serum albumin for 2 hrs at 37° C. utilizing radiolabelled (^125I; using Iodogen (Pierce)) full length soluble RAGE (100 nM; specific activity 7,000-8,000 cpm/ng) in the presence or absence of unlabelled soluble RAGE (50×molar excess) or the indicated molar excess of competitor. Wells were then eluted after washing as above with buffer containing NP-40 (1%) and NaCl (0.15M). The material retrieved was then counted in a gamma counter (LKB). In certain experiments, antibodies or excess soluble RAGE were employed as indicated to test their ability to compete in the indicated assays.
# Radioligand binding studies. […] Radioligand binding assays were performed in which CML-BSA, pentosidine-BSA or methylglyoxal-human serum albumin was adsorbed to plastic wells. Radioligand binding assays were performed as described and equilibrium binding data was analyzed according to the equation of Klotz and Hunston.
# [2] = target: T1, sRAGE; assay: Radioligand competition: 125I-sRAGE (100 nM) binding to immobilized CML-BSA with competitors; conditions: competitor in excess
# Method: Radioligand binding studies: competition experiments. CML-BSA was immobilized to wells; binding was performed with ^125-I sRAGE (100 nM) with the indicated competitors. […] Percent maximal binding is reported compared to binding to immobilized CML-BSA without competitor (100%).
# Radioligand binding studies: CML-adducts interact with the V-type Ig domain of RAGE. CML-BSA was immobilized to wells; binding was performed with ^125-I sRAGE (100 nM) in the presence or absence of excess unlabelled (100-fold) V-type Ig domain, C1 Ig domain or C2 Ig domain. Percent maximal binding is reported compared to binding to immobilized CML-BSA without competitor (100%).
# Radioligand binding assays. […] All materials were devoid of endotoxin using the Detoxi-gel system (PIERCE®) and tested for negativity in the limulus amebocyte assay (SIGMA®). Gas chromatography-mass spectroscopy and HPLC analyses were performed and verified the identity of the prepared AGES. Specific AGE or control protein (5 μg) was loaded onto the wells of a NUNC MAXISORP® dish in sodium bicarbonate/sodium carbonate buffer (pH 9.8) overnight at 4° C. […] The material retrieved was then counted in a gamma counter (LKB). […]
# Radioligand binding studies. […] Radioligand binding assays were performed as described and equilibrium binding data was analyzed according to the equation of Klotz and Hunston.
# [3] = target: RAGE (Homo sapiens, UniProt Q15109); assay: Binding of CML-modified proteins to immobilized RAGE (Example 2); conditions: for Kd: dose-dependent and saturable
# Sequence of RAGE (Q15109 23-404): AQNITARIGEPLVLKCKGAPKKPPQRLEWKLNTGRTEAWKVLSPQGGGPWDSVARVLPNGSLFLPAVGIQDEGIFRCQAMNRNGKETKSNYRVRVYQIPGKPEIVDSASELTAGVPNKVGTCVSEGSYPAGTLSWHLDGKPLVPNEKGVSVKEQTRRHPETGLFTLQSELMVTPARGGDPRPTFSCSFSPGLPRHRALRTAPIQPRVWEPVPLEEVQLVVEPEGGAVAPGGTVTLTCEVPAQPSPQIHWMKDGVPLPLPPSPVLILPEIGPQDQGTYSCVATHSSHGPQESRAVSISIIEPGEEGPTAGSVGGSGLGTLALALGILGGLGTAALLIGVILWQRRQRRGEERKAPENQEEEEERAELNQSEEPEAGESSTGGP
# Excerpt: (§1) Advanced glycation endproducts (AGEs) are heterogeneous compounds that form in hyperglycemia, highly-oxidized environments and renal failure. AGEs accumulate in the plasma and tissues of patients with diabetes; their presence has been linked to the development of medical complications. Interaction of AGEs with Receptor for AGE ([…]) activates cells such as endothelial cells (Ecs) and monocytes (Mps) in a manner favoring the development of vascular/inflammatory cell complications. AGEs consist of structures such as carboxymethyl-lysine and pentosidine (both free and protein-bound forms). To begin to delineate which AGE forms interact with RAGE, we prepared free CML and pentosidine, as well as CML- and pentosidine bovine serum albumin (BSA) and ovalbumin (OVA).
# [4] = tested on: NF-κB; assay: NF-κB activation in monocytes (MPs) (Example 2); type: cell-based
# Excerpt: as §1
# [5] = tested on: VCAM-1; assay: Infusion into normal mice, Northern analysis of VCAM-1 mRNA in lung; type: in vivo; conditions: 100 μg infused into CD1 mice, six hrs, Northern blot
# Method: FIG. 7. In vivo studies: infusion of CML-BSA into mice modulates […] expression. CML-BSA (lane 2) or native BSA (lane 1) (both 100 μg) was infused into normal CD1 mice. LPS (100 μg) was infused as positive control (lane 3). Six hrs later, mice were humanely sacrificed and lungs rapidly removed for preparation of RNA. Northern analysis was performed as described above for VCAM-1; membranes were then stripped and reprobed with ^32-P-labelled cDNA for G3PDH.
# Northern blot analysis. Northern blot analysis for VCAM-1 and G3PDH were performed as previously described (19).
# Infusion of CML-BSA into normal mice increases mRNA for Vascular Cell Adhesion Molecule-1.
# [6] = tested on: NF-κB; assay: Electrophoretic mobility shift assay for NF-κB in endothelial cells; type: cell-based, human; conditions: for nuclear translocation / activation of NF-κB in HUVEC: 6 hrs, AGEs at 50 μg/ml; for activation of NF-κB in Ecs: Example 2
# Method: FIG. 6. Electrophoretic mobility shift assay. Human umbilical vein endothelial cells (HUVEC) were incubated with mediators for 6 hrs; nuclear extracts were prepared and electrophoretic mobility shift assays performed with ^32P-labelled probe for NF-κB. Lanes contain mediators as above (all AGEs were added at 50 μg/ml). Lanes contain: lane 1, CML-ovalbumin; lane 2, native ovalbumin; lane 3, pentosidine ovalbumin; lane 4, nonimmune IgG and CML ovalbumin; lane 5, anti-RAGE IgG: 7 μg/ml; lane 6; anti-RAGE IgG: 70 μg/ml; lane 7: CML-ovalbumin/100-fold excess unlabelled NF-κB. Supershift assays (lane 8: anti-p50 IgG; lane 9:anti-p65 IgG; lane 10:both anti-p50 IgG and anti-p65 IgG; lane 11: preimmune IgG), all + CML-ovalbumin. Lane 12:CML-ovalbumin: vector alone/13:tail-deleted RAGE.
# Electrophoretic mobility shift assays (EMSA). Nuclear extracts were prepared from HUVECs by the method of Schreiber (33). Protein concentration was determined using the Bradford reagent (BIO-RAD®). Double-stranded oligonucleotides representing a portion of the human VCAM-1 promoter containing an NF-κB site were synthesized (Life Technologies). Oligonucleotides were used as probe as follows: NF-κB: 5′[…]3′ (SEQ ID No. 1). Probes were 5′-end labelled with g-[^32P] ATP and polynucleotide kinase. Each reaction contained 10 fmol of probe and 2-5 microliter (1.5 μg) of nuclear extract. Binding reactions were performed in buffer as previously described (19). Complexes were resolved on nondenaturing polyacrylamide gels (6%) in tris (50 mM), borate (45 mM), and EDTA (0.5 mM), ([…]; final pH 7.5). Samples were subjected to electrophoresis for 2 hrs at 10 V/cm. For supershift assays, complexes were preincubated with anti-p65 IgG, anti-p50 IgG or both together, or nonimmune IgG (7.5 μg/ml; 2 hrs 37° C.) in a total reaction volume of 20 μl.
# We tested the ability of CML-ovalbumin to ligate RAGE and activate cell signalling pathways.
# [7] = tested on: human peripheral blood-derived mononuclear phagocytes; assay: Monocyte chemotaxis assay in modified chemotaxis chambers; type: cell-based; conditions: mediator in lower wells, three hrs
# Method: FIG. 5. Cellular activation studies: mononuclear phagocytes. Human monocytes (5×10^4) were placed in the upper wells of modified chemotaxis chambers with the indicated mediators in the lower wells for three hrs. Membranes were then stained with Giemsa and cells that migrated through the membrane toward the chemotactic stimulus counted per hpf.
# Chenotaxis assays. Chemotaxis assays, performed in 48-well microchemotaxis chambers (Neuro-Probe) containing polycarbonate membranes were performed as previously described (15). In these studies, human peripheral blood-derived mononuclear phagocytes, which bear cell surface RAGE, were employed.
# Mononuclear phagocytes. To determine if CML-ovalbumin mediated increased human peripheral blood-derived monocyte chemotaxis, experiments were performed in modified chemotaxis chambers as described above.
# [8] = tested on: Human umbilical vein endothelial cells (HUVEC); assay: Molt-4 binding assay on stimulated endothelial cells (cell surface VCAM-1 functional activity); type: cell-based; conditions: for binding of Molt-4 cells to Ecs: Example 2
# Method: FIG. 4. Cellular activation studies: endothelial cells. HUVEC were incubated in the presence of the indicated mediators for 6 hrs. Where indicated, certain cells were preincubated with anti-RAGE/preimmune IgG for one hour. Cells were washed and incubated with ^51Cr-Molt-4 cells (bear VLA-4) for 1 hr. Bound radioactivity was eluted in the presence of SDS (1%) and counted in a gamma counter. Results are reported compared with Molt-4 cell binding to cells exposed to native ovalbumin (defined as “1”).
# Molt-4 binding assays. Molt-4 binding assays were performed according to the general method of Marui et al (32). Human umbilical vein endothelial cells were stimulated with the indicated compound in the presence or absence of competitors for 6 hrs at 37° C. Molt-4 cells, which express VLA-4, ligand for VCAM-1, (ATCC) were grown in RPMI 1640 containing fetal bovine serum (10%). Radio labelling was accomplished by incubating Molt-4 cells (2×10^7 cells/ml) for 16 hrs at 37° C. in the above medium containing ^51-Cr (0.2 mCi/ml). Before the binding assay, unincorporated radioactivity was removed by washing cells with Hank's balanced salt solution, and then resuspending them in RPMI containing fetal bovine serum (10%) at 4×10^6 cells/ml. Molt-4 cells were incubated with endothelial cells for one hr at 37° C., and nonadherent cells were removed by washing twice with Medium 199 containing fetal bovine serum (1%); adherent cells were solubilized in SDS (1%), and radioactivity counted in a gamma counter.
# To test if incubation of CML-ovalbumin or pentosidine-ovalbumin activated EC, specific AGEs were rendered free of endotoxin (Detoxigel columns (PIERCE®)) and tested for absence of endotoxin by limulus amebocyte assay (SIGMA®).
molecule,measurement,setting,value
"N[C@@H](CCCCNCC(=O)O)C(=O)O [free CML, N^e-(Carboxymethyl)lysine]",specific binding to sRAGE/RAGE,[1],not
same,effect on binding of 125I-sRAGE to immobilized CML-BSA,[2],no effect
same,effect on binding of CML-BSA and CML-OVA to immobilized RAGE,[3],not
"N[C@@H](CCCCn1cccc2nc(NCCC[C@H](N)C(=O)O)nc1-2)C(=O)O [free pentosidine, Pentosidine]",effect on binding of 125I-sRAGE to immobilized CML-BSA,[2],no effect
same,effect on binding of CML-BSA and CML-OVA to immobilized RAGE,[3],not
"CML-BSA: carboxymethyl-lysine-modified bovine serum albumin, a synthetic AGE",Kd,"[1]; read-out: KD of binding to sRAGE, AGE-protein (5 μg) immobilized on wells, increasing 125I-sRAGE +/- 50-fold excess unlabelled sRAGE",~76 nM
same,activation of NF-κB in MPs,[4],activated NF-κB
same,mRNA for VCAM-1 in lung tissue,[5],increased mRNA for VCAM-1
same,Kd,[3],60 nM
"CML-ovalbumin: carboxymethyl-lysine-modified ovalbumin, a synthetic AGE",nuclear translocation / activation of NF-κB in HUVEC,[6],increased nuclear translocation of NF-κB
same,activation of NF-κB in Ecs,[6],activated NF-κB
same,monocyte chemotaxis,[7],stimulated monocyte chemotaxis in a dose-dependent manner
same,activation of NF-κB in MPs,[4],activated NF-κB
same,binding of Molt-4 cells to Ecs,[8],increased binding of Molt-4 cells
same,increase in binding of 51Cr-Molt 4 cells to HUVEC,"[8]; HUVEC exposed 6 hrs, relative to native ovalbumin (defined as 1)",2.3 fold
native ovalbumin: unmodified ovalbumin control protein,nuclear translocation / activation of NF-κB in HUVEC,[6],not
same,monocyte chemotaxis,[7],without effect
same,effect on binding of 51Cr-Molt 4 cells to HUVEC,[8]; HUVEC exposed 6 hrs,without effect
pentosidine-BSA: pentosidine-modified bovine serum albumin,specific binding to sRAGE/RAGE,[1],no specific binding
same,activation of NF-κB in Ecs,[6],without effect
same,monocyte chemotaxis,[7],without effect
same,activation of NF-κB in MPs,[4],without effect
same,binding of Molt-4 cells to Ecs,[8],without effect
pentosidine-ovalbumin: pentosidine-modified ovalbumin,nuclear translocation / activation of NF-κB in HUVEC,[6],not
same,effect on binding of 51Cr-Molt 4 cells to HUVEC,[8]; HUVEC exposed 6 hrs,without effect
unmodified BSA: unmodified bovine serum albumin control protein,mRNA for VCAM-1 in lung tissue,[5],without effect
same,effect on binding of CML-BSA and CML-OVA to immobilized RAGE,[3],not
"CML-ovalbumin: carboxymethyl-lysine-modified ovalbumin, a synthetic AGE (protein, UniProt P01012 2-386, looked up, carboxymethyl-lysine modified, carboxymethyl-lysine-modified ovalbumin, a synthetic AGE) Ovalbumin: GSIGAASMEFCFDVFKELKVHHANENIFYCPIAIMSALAMVYLGAKDSTRTQINKVVRFDKLPGFGDSIEAQCGTSVNVHSSLRDILNQITKPNDVYSFSLASRLYAEERYPILPEYLQCVKELYRGGLEPINFQTAADQARELINSWVESQTNGIIRNVLQPSSVDSQTAMVLVNAIVFKGLWEKAFKDEDTQAMPFRVTEQESKPVQMMYQIGLFRVASMASEKMKILELPFASGTMSMLVLLPDEVSGLEQLESIINFEKLTEWTSSNVMEERKIKVYLPRMKMEEKYNLTSVLMAMGITDVFSSSANLSGISSAESLKISQAVHAAHAEINEAGREVVGSAEAGVDAASVSEEFRADHPFLFCIKHIATNAVLFFGRCVSP",Kd,[3],60 nM
"native ovalbumin: unmodified ovalbumin control protein (protein, UniProt P01012 2-386, looked up) Ovalbumin: GSIGAASMEFCFDVFKELKVHHANENIFYCPIAIMSALAMVYLGAKDSTRTQINKVVRFDKLPGFGDSIEAQCGTSVNVHSSLRDILNQITKPNDVYSFSLASRLYAEERYPILPEYLQCVKELYRGGLEPINFQTAADQARELINSWVESQTNGIIRNVLQPSSVDSQTAMVLVNAIVFKGLWEKAFKDEDTQAMPFRVTEQESKPVQMMYQIGLFRVASMASEKMKILELPFASGTMSMLVLLPDEVSGLEQLESIINFEKLTEWTSSNVMEERKIKVYLPRMKMEEKYNLTSVLMAMGITDVFSSSANLSGISSAESLKISQAVHAAHAEINEAGREVVGSAEAGVDAASVSEEFRADHPFLFCIKHIATNAVLFFGRCVSP",effect on binding of CML-BSA and CML-OVA to immobilized RAGE,[3],not
